Measured values reported in patent publication US20060041013A1, “Alanosine formulations and methods of use” (priority 2004, published 2006).
Like-named read-outs stand apart in the source and are kept apart here. Values belong to the compound of their own block, whether it stands above or below them.

Legend:
BX-PC3 [1] = experiment: Drug combinations with L-alanosine, MTT assay; format: cell-based; settings: combination with L-alanosine, three days
Description: (§1) In each experiment, tumor cells from lung, pancreatic, or mesothelial tumor cell lines were plated in 96-well plates at 5,000 cells/well in 100 μL media. The media for all assays except the Alimta® studies was RPMI-1640 and 10% horse serum. For the Alimta® studies, the media used was RPMI 1640 with dialyzed fetal bovine serum. All media contained 100 Units/mL penicillin and 100 μg/mL streptomycin. The cells were allowed to adhere for 18 hours at 37° C./5.0% CO2. […] After drug addition, cells were incubated three days at 37° C., 5.0% CO2. Cell viability was assayed using a standard MTT assay, as follows: 10 μl of 12 mM 3-[4,5-dimethylthiazol-2-yl]-2,5-diphenyltetrazolium bromide (MTT) (Sigma) were added to each well. The cells were incubated at 37° C., 5% CO2 for 4 to 6 hours. 100 μl of 20% SDS, 0.015 M HCl were added to each well and the cells were incubated overnight. Cytotoxicity was measured by reading absorbance at 595 nm.
(§2) Data analysis was performed using GraphPad Prism version 3.0 (GraphPad Software, San Diego, Calif. USA).

NCI-H2452 [2] = experiment: Drug combinations with L-alanosine, MTT assay; format: cell-based; settings: combination with L-alanosine, mesothelioma, three days
Description: as §1, §2

PanC1 = experiment: Drug combinations with L-alanosine, MTT assay; format: cell-based; settings: combination with L-alanosine, pancreatic, three days
Description: as §1, §2

PANC-1 = experiment: Docetaxel, 5-FU, SDX-102 alone or combined, MTT/MTS cytotoxicity (Example 4); format: cell-based; settings: Homo sapiens; PANC-1, Pancreatic, single agent, MTT 72 hours
BX-PC3 [3] = experiment: as above; format: cell-based; settings: Homo sapiens, BXPC-3; BX-PC3, Pancreatic, single agent, MTT 72 hours
A549 [4] = experiment: as above; format: cell-based; settings: Homo sapiens; A549, NSCLC, single agent, MTT 72 hours
NCI-H2452 [5] = experiment: as above; format: cell-based; settings: Homo sapiens; NCI-H2452, Mesothelioma, single agent, MTT 72 hours
NCI-H322M = experiment: as above; format: cell-based; settings: Homo sapiens, NSCLC, single agent, MTT 72 hours
NCI-H292 [6] = experiment: as above; format: cell-based; settings: Homo sapiens; NCI-H292, NSCLC, single agent, MTT 72 hours
H-Meso-1 = experiment: Mesothelioma xenograft model (H-Meso-1) in SCID mice; format: in vivo; settings: thirty-one days following treatment; docetaxel 10 mg/kg intraperitoneally daily Mon-Fri, SDX-102 50 mg/kg osmotic pump; start 100 mm^3; control 1272
NCI-H2322M = experiment: Drug combinations with L-alanosine, MTT assay; format: cell-based; settings: combination with L-alanosine, ratio drug:alanosine 1:1000; NSCLC; three days
Description: as §1, §2

A549 [7] = experiment: Drug combinations with L-alanosine, MTT assay; format: cell-based; settings: combination with L-alanosine, NSCLC, three days
Description: as §1, §2

NCI-H292 [8] = experiment: Drug combinations with L-alanosine, MTT assay; format: cell-based; settings: combination with L-alanosine, ratio drug:alanosine 1:1000; NSCLC; three days
Description: as §1, §2

A549 NSCLC xenografts = experiment: MTAP-negative A549 NSCLC xenografts in SCID mice; format: in vivo
A-594 = experiment: Intracellular ATP levels (Cell-Titer Glow); format: cell-based; settings: 72 h; A-594, NSCLC, MTAP Negative; 3 day treatment
Description: (§3) MTAP status was determined using immunoblot analyses and correlated with the ability of an MTA analog to rescue ATP levels in cell lines treated with SDX-102. ATP levels were measured using Cell-Titer Glow™ (Promega) after a 3 day treatment with titrated concentrations of either SDX-102 or pemetrexed.

BxPC3 [9] = experiment: Intracellular ATP levels (Cell-Titer Glow); format: cell-based; settings: Homo sapiens, BXPC-3, 72 h; BxPC3, Pancreatic, MTAP Negative; 3 day treatment
Description: as §3

NCI-H2452 [10] = experiment: Intracellular ATP levels (Cell-Titer Glow); format: cell-based; settings: Homo sapiens
Description: as §3

HS-766T [11] = experiment: Cell viability MTT assay (Example 3); format: cell-based
BxPC3 [12] = experiment: Cell viability MTT assay (Example 3); format: cell-based; settings: Homo sapiens, BXPC-3, 72 h; BxPC3, Pancreatic, MTAP Negative; 3 days
NCI-H226 [13] = experiment: Cell viability MTT assay (Example 3); format: cell-based; settings: Homo sapiens, 72 h; NCI-H226, Mesothelioma, MTAP Positive; 3 days
A-427 [14] = experiment: Cell viability MTT assay (Example 3); format: cell-based; settings: Homo sapiens, 72 h; A-427, NSCLC, MTAP Positive; 3 days
NCI-H226 [15] = experiment: Intracellular ATP levels (Cell-Titer Glow); format: cell-based
Description: as §3
(§4) ATP values measured using Cell-Titer Glow™ (Promega) after 3 days exposure to the MTA analog. Solid lines in FIG. 8 represent the effect of titrations of SDX-102 from 0.05 μM-20 μM (FIG. 8A) or pemetrexed from 0.01 μM-5 μM (FIG. 8B) on cellular ATP levels. The dotted lines represent the effect of a single concentration of SDX-102 (10 μM) or pemetrexed (2.5 μM) with a titration of an MTA analog from 0.1 μM-50 μM.

HS-766T [16] = experiment: Intracellular ATP levels (Cell-Titer Glow); format: cell-based
Description: as §3, §4

A-427 [17] = experiment: Intracellular ATP levels (Cell-Titer Glow); format: cell-based
Description: as §3, §4

NCI-H2452 [18] = tested on: NCI-H2452
NCI-H2452 [19] = experiment: Cell viability MTT assay (Example 3); format: cell-based; settings: Homo sapiens, 72 h; NCI-H2452, Mesothelioma, MTAP Negative; 3 days
[20] = Cell viability MTT assay (Example 3); format: cell-based; settings: 72 h; A-594, NSCLC, MTAP Negative; 3 days
[21] = ratio drug:alanosine 5:1, pancreatic
[22] = ratio drug:alanosine 1:4, pancreas
[23] = ratio drug:alanosine 1:100, pancreas

EC90 Effect (BX-PC3 [1]; [22]): strong
Structure (SMILES): COc1cc2ncnc(Nc3ccc(F)c(Cl)c3)c2cc1OCCCN1CCOCC1 [Iressa ®, gefitinib]
EC75 CI value (BX-PC3 [1]; [22]): 0.29
EC75 Effect (BX-PC3 [1]; [22]): strong

EC90 Effect (NCI-H2322M): synergism
EC90 Effect (NCI-H2452 [2]; ratio drug:alanosine 1:1000): synergism
EC90 Effect (A549 [7]; ratio drug:alanosine 1:100): moderate
EC90 Effect (PanC1; ratio drug:alanosine 1:1000): synergism
EC90 Effect (NCI-H292 [8]): additive
Structure (SMILES): CC(=O)O[C@@]12CO[C@@H]1C[C@H](O)[C@@]1(C)C(=O)[C@H](O)C3=C(C)[C@@H](OC(=O)[C@H](O)[C@@H](NC(=O)OC(C)(C)C)c4ccccc4)C[C@@](O)([C@@H](OC(=O)c4ccccc4)[C@H]21)C3(C)C [docetaxel]
mean tumor volume (H-Meso-1): 655 mm^3
EC75 CI value (NCI-H2322M): 0.9
EC75 CI value (NCI-H2452 [2]; ratio drug:alanosine 1:1000): 0.8
EC75 Effect (NCI-H2452 [2]; ratio drug:alanosine 1:1000): moderate
EC75 CI value (A549 [7]; ratio drug:alanosine 1:100): 0.8
EC75 Effect (A549 [7]; ratio drug:alanosine 1:100): moderate
EC75 CI value (PanC1; ratio drug:alanosine 1:1000): 0.6
EC75 Effect (PanC1; ratio drug:alanosine 1:1000): synergism
EC75 CI value (NCI-H292 [8]): 1.1
EC75 Effect (NCI-H292 [8]): additive
IC50 (PANC-1): 30000 ± 6000 nM
IC50 (BX-PC3 [3]): 1200 ± 800 nM
IC50 (A549 [4]): 5000 ± 4000 nM
IC50 (NCI-H2452 [5]): 3000 ± 2000 nM
IC50 (NCI-H322M): 6000 ± 2000 nM
IC50 (NCI-H292 [6]): 200 ± 50 nM

EC90 Effect (BX-PC3 [1]; [23]): synergism
Structure (SMILES): CCC1=C[C@@H]2CN(C1)Cc1c([nH]c3ccccc13)[C@@](C(=O)OC)(c1cc3c(cc1OC)N(C)[C@H]1[C@@](O)(C(=O)OC)[C@H](OC(C)=O)[C@]4(CC)C=CCN5CC[C@]31[C@@H]54)C2 [vinorelbine]
EC75 CI value (BX-PC3 [1]; [23]): 0.6
EC75 Effect (BX-PC3 [1]; [23]): synergism

Continued, compound first:

Structure (SMILES): O=c1[nH]cc(F)c(=O)[nH]1 [5-FU, 5-fluorouracil]
EC75 CI value (BX-PC3 [1]; [21]): 0.8
EC75 Effect (BX-PC3 [1]; [21]): moderate
EC90 Effect (BX-PC3 [1]; [21]): moderate
EC75 CI value (NCI-H2452 [2]; ratio drug:alanosine 1:1): 0.5
EC75 Effect (NCI-H2452 [2]; ratio drug:alanosine 1:1): synergism
EC90 Effect (NCI-H2452 [2]; ratio drug:alanosine 1:1): synergism
EC75 CI value (PanC1; ratio drug:alanosine 1:1): 0.6
EC75 Effect (PanC1; ratio drug:alanosine 1:1): synergism
EC90 Effect (PanC1; ratio drug:alanosine 1:1): synergism
IC50 (PANC-1): 14000 ± 4000 nM
IC50 (BX-PC3 [3]): 3000 ± 2000 nM
IC50 (A549 [4]): 1000 ± 600 nM
IC50 (NCI-H2452 [5]): 5000 ± 2000 nM
IC50 (NCI-H322M): 6000 ± 5000 nM
IC50 (NCI-H292 [6]): 3000 ± 2000 nM

Structure (SMILES): Nc1ccn([C@@H]2O[C@H](CO)[C@@H](O)C2(F)F)c(=O)n1 [gemcitabine]
EC75 CI value (NCI-H2452 [2]; ratio drug:alanosine 1:100): 0.6
EC75 Effect (NCI-H2452 [2]; ratio drug:alanosine 1:100): synergism
EC90 Effect (NCI-H2452 [2]; ratio drug:alanosine 1:100): synergism

Structure (SMILES): CC(=O)O[C@H]1C(=O)[C@@]2(C)[C@H]([C@H](OC(=O)c3ccccc3)[C@]3(O)C[C@H](OC(=O)[C@H](O)[C@@H](NC(=O)c4ccccc4)c4ccccc4)C(C)=C1C3(C)C)[C@]1(OC(C)=O)CO[C@@H]1C[C@@H]2O [paclitaxel]
tumor growth inhibition (A549 NSCLC xenografts; 60 days monitoring, doses as administered): inhibited tumor growth
time for the tumors to increase 10-fold in size (A549 NSCLC xenografts; L-alanosine 40 then 20 mg/kg/day, Taxol 16 mg/kg/day i.p., two cycles (day 0, day 41), control 32.2): 43.2 days
percent mean change in tumor volume (A549 NSCLC xenografts; day 46): 1449±236%

Structure (SMILES): Nc1nc2[nH]cc(CCc3ccc(C(=O)N[C@@H](CCC(=O)O)C(=O)O)cc3)c2c(=O)[nH]1 [pemetrexed]
IC50 (A-594): > 20000 nM
IC50 (BxPC3 [9]): 5000 nM
IC50 (NCI-H2452 [10]; 72 h, NCI-H2452, Mesothelioma, MTAP Negative, 3 day treatment, read-out: ATP IC50): 100 nM
IC50 (NCI-H2452 [10]; NCI-H2452, 72 hours incubation, read-out: concentration causing 50% reduction of intracellular ATP): 80 nM
IC50 (HS-766T [11]; Hs766T, 72 h, Pancreatic, MTAP Positive, 3 days): > 20000 nM
rescue by MTAP substrate from loss of viability (HS-766T [11]; MTT assay): fully rescue
EC75 CI value (NCI-H2452 [2]; ratio drug:alanosine 1:1): 0.3
EC75 Effect (NCI-H2452 [2]; ratio drug:alanosine 1:1): strong
EC90 Effect (NCI-H2452 [2]; ratio drug:alanosine 1:1): strong
EC75 CI value (A549 [7]; ratio drug:alanosine 1:10): 0.9
EC75 Effect (A549 [7]; ratio drug:alanosine 1:10): slight
EC90 Effect (A549 [7]; ratio drug:alanosine 1:10): Slight
IC50 (BxPC3 [12]): 50 nM
IC50 (NCI-H226 [13]): 1000 nM
IC50 (A-427 [14]): 3000 nM
IC50 (NCI-H226 [15]; Homo sapiens, 72 h, NCI-H226, Mesothelioma, MTAP Positive, 3 day treatment): 1000 nM
ATP levels restored by addition of an MTAP substrate, of level in control cells (NCI-H226 [15]; NCI-H226 (MTAP-positive) treated with pemetrexed): more than 85%
ATP levels restored by addition of an MTAP substrate, of level in control cells (HS-766T [16]; HS-766T (MTAP-positive) treated with pemetrexed): more than 85%
IC50 (HS-766T [16]; Hs766T, 72 h, HS-766T, Pancreatic, MTAP Positive, 3 day treatment): 800 nM
ATP levels restored by addition of an MTAP substrate, of level in control cells (A-427 [17]; A-427 (MTAP-positive) treated with pemetrexed): more than 85%
IC50 (A-427 [17]; Homo sapiens, 72 h, A-427, NSCLC, MTAP Positive, 3 day treatment): 5000 nM
IC75 (NCI-H2452 [18]; NCI-H2452, incubation with 200 nM L-alanosine): 15 nM
IC75 (NCI-H2452 [18]; NCI-H2452, pemetrexed alone): 200 nM
IC50 (NCI-H2452 [19]): 50 nM
IC50 [20]: 500 nM
